Measurements taken from patent US8853230B2, “Inhibitors of JAK” (Portola Pharmaceuticals, Inc., priority 2009, dated 2014).

Experiments:
Format in all cases: biochemical
JAK2 = molecular target: T1, JAK2 (Homo sapiens, UniProt O60674); experiment: Z'-LYTE kinase assay, JAK2 tyrosine phosphorylation activity
T1 construct: 5 μl of catalytic domain recombinant Kinase enzyme+Tyr peptide substrate (Invitrogen, Calif.); purchased Invitrogen
How it was run: (§1)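 FRET read-out (ex 400 nm, em 445 and 520 nm) after protease cleavage of non-phosphorylated Tyr6 peptide. Kinase step: catalytic-domain enzyme, peptide, ATP and compound, 1 h at RT, 1% DMSO. IC50 from a 4-parameter logistic fit of percent phosphorylation versus uninhibited control.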

JAK1 = molecular target: T2, JAK1 (Homo sapiens, UniProt P23458); experiment: Z'-LYTE kinase assay, JAK1 tyrosine phosphorylation activity; conditions: read-out: JAK 1 IC50
T2 construct: 5 μl of catalytic domain recombinant Kinase enzyme+Tyr peptide substrate (Invitrogen, Calif.); purchased Invitrogen
How it was run: as §1

JAK3 = molecular target: T3, JAK3 (Homo sapiens, UniProt P52333); experiment: Z'-LYTE kinase assay, JAK3 tyrosine phosphorylation activity
T3 construct: 5 μl of catalytic domain recombinant Kinase enzyme+Tyr peptide substrate (Invitrogen, Calif.); purchased Invitrogen
How it was run: as §1

TYK2 = molecular target: T4, TYK2 (Homo sapiens, UniProt P29597); experiment: Z'-LYTE kinase assay, TYK2 tyrosine phosphorylation activity
T4 construct: 5 μl of catalytic domain recombinant Kinase enzyme+Tyr peptide substrate (Invitrogen, Calif.); purchased Invitrogen
T4 sequence (P29597 897-1176 limits assumed): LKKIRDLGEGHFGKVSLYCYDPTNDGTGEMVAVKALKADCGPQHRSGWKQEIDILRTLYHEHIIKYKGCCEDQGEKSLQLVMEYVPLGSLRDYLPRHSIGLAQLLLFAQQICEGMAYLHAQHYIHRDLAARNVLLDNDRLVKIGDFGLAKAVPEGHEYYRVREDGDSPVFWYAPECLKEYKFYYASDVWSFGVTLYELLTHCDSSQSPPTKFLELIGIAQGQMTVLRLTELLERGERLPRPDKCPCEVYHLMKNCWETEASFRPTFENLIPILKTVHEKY
How it was run: as §1

T3 sequence (P52333 822-1111 limits assumed): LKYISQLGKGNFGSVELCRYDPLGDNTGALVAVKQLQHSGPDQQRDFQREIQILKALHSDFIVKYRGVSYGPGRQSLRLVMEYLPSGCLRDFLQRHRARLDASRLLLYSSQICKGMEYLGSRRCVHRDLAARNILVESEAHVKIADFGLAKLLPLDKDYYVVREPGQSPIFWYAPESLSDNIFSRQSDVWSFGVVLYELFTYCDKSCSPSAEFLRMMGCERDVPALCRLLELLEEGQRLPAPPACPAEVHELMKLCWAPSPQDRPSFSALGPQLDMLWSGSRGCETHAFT
T1 sequence (O60674 849-1124 limits assumed): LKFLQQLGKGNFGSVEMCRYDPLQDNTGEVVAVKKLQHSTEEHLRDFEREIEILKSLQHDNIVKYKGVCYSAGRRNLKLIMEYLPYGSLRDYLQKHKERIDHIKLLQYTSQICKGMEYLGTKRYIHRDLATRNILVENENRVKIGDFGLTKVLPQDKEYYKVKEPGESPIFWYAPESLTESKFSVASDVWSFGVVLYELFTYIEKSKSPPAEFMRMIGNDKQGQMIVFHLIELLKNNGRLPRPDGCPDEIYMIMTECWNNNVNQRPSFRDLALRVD
T2 sequence (P23458 875-1153 limits assumed): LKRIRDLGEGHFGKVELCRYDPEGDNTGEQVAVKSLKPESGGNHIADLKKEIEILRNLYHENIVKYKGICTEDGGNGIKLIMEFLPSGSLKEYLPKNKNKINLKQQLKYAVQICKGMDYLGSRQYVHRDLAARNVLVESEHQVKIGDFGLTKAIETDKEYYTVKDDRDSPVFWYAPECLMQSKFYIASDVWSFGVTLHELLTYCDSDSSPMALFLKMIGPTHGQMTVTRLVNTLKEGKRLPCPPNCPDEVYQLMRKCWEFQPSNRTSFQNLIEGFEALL

| Compound | IC50 (JAK2) [nM] | IC50 (JAK1) [nM] | IC50 (JAK3) [nM] | IC50 (TYK2) [nM] |
| --- | --- | --- | --- | --- |
| CC(=O)Nc1cccc(Nc2ncc(C(N)=O)c(NCC(C)C)n2)c1 [Example 235, 2-(3-acetamidophenylamino)-4-(isobutylamino)pyrimidine-5-carboxamide] | 10 to 100 | 10 to 100 | 1 to 10 | 1 to 10 |
| CC[C@@H](C)Nc1nc(Nc2cccc(NC(C)=O)c2)ncc1C(N)=O [Example 238, (R)-2-(3-acetamidophenylamino)-4-(sec-butylamino)pyrimidine-5-carboxamide] | 1 to 10 | 1 to 10 | < 1 | 1 to 10 |
| COc1ccc(Nc2ncc(C(N)=O)c(NCc3ccccc3)n2)cc1N(C)C(=O)N1CCCC1 [Example 239, 4-(benzylamino)-2-(4-methoxy-3-(N-methylpyrrolidine-1-carboxamido)phenylamino)pyrimidine-5-carboxamide] | 10 to 100 | 100 to 1000 | 10 to 100 | 10 to 100 |
| CN(C(=O)N1CCCC1)c1cc(Nc2ncc(C(N)=O)c(NCc3ccccc3)n2)ccc1Cl [Example 241, 4-(benzylamino)-2-(4-chloro-3-(N-methylpyrrolidine-1-carboxamido)phenylamino)pyrimidine-5-carboxamide] | 100 to 1000 | 100 to 1000 | 10 to 100 | 100 to 1000 |
| CCC(C)CNc1nc(Nc2cccc(NC(C)=O)c2)ncc1C(N)=O (centres unmarked) [Example 249, 2-(3-acetamidophenylamino)-4-(2-methylbutylamino)pyrimidine-5-carboxamide] | 1 to 10 | 10 to 100 | < 1 | 1 to 10 |
| CC(=O)Nc1cccc(Nc2ncc(C(N)=O)c(NCCC(C)C)n2)c1 [Example 251, 2-(3-acetamidophenylamino)-4-(isopentylamino)pyrimidine-5-carboxamide] | 10 to 100 | 10 to 100 | 1 to 10 | 1 to 10 |
| C[C@@H](Nc1nc(Nc2cccc(NC(=O)N3CCN(C)CC3)c2)ncc1C(N)=O)c1ccccc1 [Example 254, (R)-2-(3-(4-methylpiperazine-1-carboxamido)phenylamino)-4-(1-phenylethylamino)pyrimidine-5-carboxamide] | 1 to 10 | 10 to 100 | 1 to 10 | 10 to 100 |
| CC(=O)Nc1cc(Nc2ncc(C(N)=O)c(Nc3cccc4c3cnn4C)n2)ccc1OCCN1CCCC1 [Example 256, 2-(3-acetamido-4-(2-(pyrrolidin-1-yl)ethoxy)phenylamino)-4-(1-methyl-1H-indazol-4-ylamino)pyrimidine-5-carboxamide] | 1 to 10 | 10 to 100 | 1 to 10 | 10 to 100 |
| CC(=O)Nc1cc(Cl)cc(Nc2ncc(C(N)=O)c(NCc3cccc(F)c3)n2)c1 [Example 261, 2-(3-acetamido-5-chlorophenylamino)-4-(3-fluorobenzylamino)pyrimidine-5-carboxamide] | 10 to 100 | > 1000 | 10 to 100 | 10 to 100 |
| CC(=O)Nc1cccc(Nc2ncc(C(N)=O)c(NCC3CCC3)n2)c1 [Example 262, 2-(3-acetamidophenylamino)-4-(cyclobutylmethylamino)pyrimidine-5-carboxamide] | 10 to 100 | 10 to 100 | 1 to 10 | 1 to 10 |
| CC(=O)Nc1cccc(Nc2cc(NCC(C)C)c(C(N)=O)cn2)c1 [Example 323, 6-(3-acetamidophenylamino)-4-(isobutylamino)nicotinamide] | 100 to 1000 | 100 to 1000 | 10 to 100 | 10 to 100 |
| CC(C)CNc1cc(Nc2cccc(NC(=O)N3CCCC3)c2)ncc1C(N)=O [Example 324, 4-(isobutylamino)-6-(3-(pyrrolidine-1-carboxamido)phenylamino)nicotinamide] | 100 to 1000 | 100 to 1000 | 10 to 100 | 100 to 1000 |
| C[C@@H](Nc1cc(Nc2cccc(NC(=O)N3CCCC3)c2)ncc1C(N)=O)c1ccccc1 [Example 325, (R)-4-(1-phenylethylamino)-6-(3-(pyrrolidine-1-carboxamido)phenylamino)nicotinamide] | 100 to 1000 | 100 to 1000 | 1 to 10 | 100 to 1000 |

Now from value to compound:

| IC50 (JAK2) [nM] | IC50 (JAK1) [nM] | IC50 (JAK3) [nM] | IC50 (TYK2) [nM] | Compound |
| --- | --- | --- | --- | --- |
| 10 to 100 | 10 to 100 | 10 to 100 | 10 to 100 | CC(C)CNc1nc(Nc2ccc(Cl)c(NC(=O)N3CCCC3)c2)ncc1C(N)=O [Example 236, 2-(4-chloro-3-(pyrrolidine-1-carboxamido)phenylamino)-4-(isobutylamino)pyrimidine-5-carboxamide] |
| 10 to 100 | 10 to 100 | 1 to 10 | 10 to 100 | CC[C@@H](C)Nc1nc(Nc2ccc(Cl)c(NC(=O)N3CCCC3)c2)ncc1C(N)=O [Example 237, (R)-4-(sec-butylamino)-2-(4-chloro-3-(pyrrolidine-1-carboxamido)phenylamino)pyrimidine-5-carboxamide] |
| > 1000 | > 1000 | 100 to 1000 | > 1000 | COc1ccc(Nc2ncc(C(N)=O)c(NCc3cccc(F)c3)n2)cc1N(C)C(=O)N1CCCC1 [Example 240, 4-(3-fluorobenzylamino)-2-(4-methoxy-3-(N-methylpyrrolidine-1-carboxamido)phenylamino)pyrimidine-5-carboxamide] |
| > 1000 | > 1000 | 100 to 1000 | > 1000 | CN(C(=O)N1CCCC1)c1cc(Nc2ncc(C(N)=O)c(NCc3cccc(F)c3)n2)ccc1Cl [Example 242, 2-(4-chloro-3-(N-methylpyrrolidine-1-carboxamido)phenylamino)-4-(3-fluorobenzylamino)pyrimidine-5-carboxamide] |
| 1 to 10 | 10 to 100 | 1 to 10 | 1 to 10 | CC(=O)Nc1cc(Nc2ncc(C(N)=O)c(Nc3cccc4nsnc34)n2)ccc1OCCCN1CCCCC1 [Example 243] |
| 10 to 100 | 10 to 100 | 10 to 100 | 10 to 100 | CC(=O)Nc1cccc(Nc2ncc(C(N)=O)c(N[C@@H](C)C(C)C)n2)c1 [Example 247, (S)-2-(3-acetamidophenylamino)-4-(3-methylbutan-2-ylamino)pyrimidine-5-carboxamide] |
| 100 to 1000 | 10 to 100 | 1 to 10 | 10 to 100 | CCC(C)CNc1nc(Nc2ccc(Cl)c(NC(=O)N3CCCC3)c2)ncc1C(N)=O (centres unmarked) [Example 250] |
| 1 to 10 | 1 to 10 | < 1 | < 1 | CC(=O)Nc1cccc(Nc2ncc(C(N)=O)c(N[C@H](C)C(C)C)n2)c1 [Example 252, (R)-2-(3-acetamidophenylamino)-4-(3-methylbutan-2-ylamino)pyrimidine-5-carboxamide] |
| 10 to 100 | 10 to 100 | 1 to 10 | 1 to 10 | CC(C)[C@@H](C)Nc1nc(Nc2ccc(Cl)c(NC(=O)N3CCCC3)c2)ncc1C(N)=O [Example 253, (R)-2-(4-chloro-3-(pyrrolidine-1-carboxamido)phenylamino)-4-(3-methylbutan-2-ylamino)pyrimidine-5-carboxamide] |
| 1 to 10 | 10 to 100 | < 1 | 10 to 100 | C[C@@H](Nc1nc(Nc2cccc(NC(=O)N3CCOCC3)c2)ncc1C(N)=O)c1ccccc1 [Example 255, (R)—N-(3-(5-carbamoyl-4-(1-phenylethylamino)pyrimidin-2-ylamino)phenyl)morpholine-4-carboxamide] |
| 1 to 10 | 10 to 100 | < 1 | 1 to 10 | N#CCC(=O)Nc1cccc(Nc2ncc(C(N)=O)c(NCc3cccc(F)c3)n2)c1 [Example 257, 2-(3-(2-cyanoacetamido)phenylamino)-4-(3-fluorobenzylamino)-pyrimidine-5-carboxamide] |
| 1 to 10 | 10 to 100 | < 1 | 1 to 10 | CN1CCN(C(=O)Nc2cccc(Nc3ncc(C(N)=O)c(NCc4cccc(F)c4)n3)c2)CC1 [Example 258, 4-(3-fluorobenzylamino)-2-(3-(4-methylpiperazine-1-carboxamido)phenylamino)pyrimidine-5-carboxamide] |
| 1 to 10 | 10 to 100 | 1 to 10 | 1 to 10 | NC(=O)c1cnc(Nc2cccc(NC(=O)N3CCOCC3)c2)nc1NCc1cccc(F)c1 [Example 259] |
| 100 to 1000 | > 1000 | 10 to 100 | 10 to 100 | CC(=O)Nc1cc(Cl)cc(Nc2ncc(C(N)=O)c(NCc3ccccc3)n2)c1 [Example 260, 2-(3-acetamido-5-chlorophenylamino)-4-(benzylamino)pyrimidine-5-carboxamide] |
| > 1000 | > 1000 | > 1000 | > 1000 | NC(=O)c1cnc(Nc2ccc(Cl)c(NC(=O)N3CCCC3)c2)nc1NCC1CCC1 [Example 263, 2-(4-chloro-3-(pyrrolidine-1-carboxamido)phenylamino)-4-(cyclobutylmethylamino)pyrimidine-5-carboxamide] |
| 100 to 1000 | 100 to 1000 | 10 to 100 | 100 to 1000 | CC(=O)Nc1cccc(Nc2cc(N[C@H](C)c3ccccc3)c(C(N)=O)cn2)c1 [Example 322, (R)-6-(3-acetamidophenylamino)-4-(1-phenylethylamino)nicotinamide] |
